{"source": "ChEMBL document CHEMBL1201862", "about": "“PubChem BioAssay data set” (2004)", "key": {"[1]": {"target": "T1, Zinc finger protein mex-5 (Caenorhabditis elegans, UniProt Q9XUB2)", "T1 sequence (Q9XUB2 whole entry)": "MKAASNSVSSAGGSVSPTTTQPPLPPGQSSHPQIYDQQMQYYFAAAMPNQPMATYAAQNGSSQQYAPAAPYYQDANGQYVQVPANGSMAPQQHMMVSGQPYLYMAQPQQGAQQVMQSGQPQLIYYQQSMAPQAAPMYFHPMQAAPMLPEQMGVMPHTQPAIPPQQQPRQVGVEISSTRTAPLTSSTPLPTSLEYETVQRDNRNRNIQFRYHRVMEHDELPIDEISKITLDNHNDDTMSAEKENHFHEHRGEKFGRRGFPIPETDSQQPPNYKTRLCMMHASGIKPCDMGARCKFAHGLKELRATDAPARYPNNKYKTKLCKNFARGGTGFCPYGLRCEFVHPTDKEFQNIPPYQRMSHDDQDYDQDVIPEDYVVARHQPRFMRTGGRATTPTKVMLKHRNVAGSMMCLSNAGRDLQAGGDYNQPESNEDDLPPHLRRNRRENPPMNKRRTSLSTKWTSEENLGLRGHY", "experiment": "potency of MEX-5 RNA-binding blockers – biochemical, C. elegans, fluorescence polarization, dose response (AID 1960)"}, "[2]": {"target": "T2, Probable nicotinate-nucleotide adenylyltransferase (Staphylococcus aureus (strain N315), UniProt P65502)", "T2 sequence (P65502 whole entry)": "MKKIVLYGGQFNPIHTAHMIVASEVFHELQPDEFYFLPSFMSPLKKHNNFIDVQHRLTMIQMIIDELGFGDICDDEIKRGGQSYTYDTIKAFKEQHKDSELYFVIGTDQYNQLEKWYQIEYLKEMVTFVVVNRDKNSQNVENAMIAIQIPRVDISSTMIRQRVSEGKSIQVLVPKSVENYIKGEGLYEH", "type": "functional, Staphylococcus aureus subsp. aureus N315"}, "[3]": {"target": "T3, Rac GTPase-activating protein 1 (Homo sapiens, UniProt Q9H0H5)", "T3 sequence (Q9H0H5 whole entry)": "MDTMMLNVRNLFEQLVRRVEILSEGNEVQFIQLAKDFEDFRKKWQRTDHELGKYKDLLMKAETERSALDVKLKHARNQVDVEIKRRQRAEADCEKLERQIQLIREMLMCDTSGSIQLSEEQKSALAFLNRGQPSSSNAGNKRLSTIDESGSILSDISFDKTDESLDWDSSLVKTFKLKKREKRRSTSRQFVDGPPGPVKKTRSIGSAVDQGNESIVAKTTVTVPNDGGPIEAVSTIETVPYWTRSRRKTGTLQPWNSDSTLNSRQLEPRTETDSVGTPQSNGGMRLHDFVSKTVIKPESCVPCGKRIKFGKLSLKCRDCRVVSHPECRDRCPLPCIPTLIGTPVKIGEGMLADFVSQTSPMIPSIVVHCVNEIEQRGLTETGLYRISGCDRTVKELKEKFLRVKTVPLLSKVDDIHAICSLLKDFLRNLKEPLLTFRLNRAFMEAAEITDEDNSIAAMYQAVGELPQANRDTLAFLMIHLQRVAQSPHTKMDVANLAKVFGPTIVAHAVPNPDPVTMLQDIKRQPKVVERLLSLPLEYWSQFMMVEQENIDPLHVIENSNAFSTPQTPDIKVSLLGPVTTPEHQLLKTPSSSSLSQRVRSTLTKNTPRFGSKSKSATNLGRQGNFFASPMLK", "experiment": "blockers of MgcRacGAP-driven Rac1 GTP hydrolysis – biochemical, ADP Hunter fluorescence, primary and confirmatory, confirmation (AID 624330)", "type": "functional"}, "[4]": {"target": "T4, RNA-binding protein pos-1 (Caenorhabditis elegans, UniProt G5EF15)", "T4 sequence (G5EF15 whole entry)": "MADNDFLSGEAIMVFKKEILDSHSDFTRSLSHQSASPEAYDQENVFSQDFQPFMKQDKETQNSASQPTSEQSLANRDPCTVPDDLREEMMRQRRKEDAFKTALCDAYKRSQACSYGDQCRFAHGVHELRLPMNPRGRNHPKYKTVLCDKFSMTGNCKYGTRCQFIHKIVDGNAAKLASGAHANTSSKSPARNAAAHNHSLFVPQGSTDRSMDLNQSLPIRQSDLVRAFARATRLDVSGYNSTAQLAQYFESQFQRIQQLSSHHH", "experiment": "disruptors of C. elegans POS-1 RNA interaction – biochemical, fluorescence polarization, dose response (AID 1964);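 further: purified POS-1 fused to maltose binding protein made in E. coli; potency of compounds blocking POS-1 binding to fluorescent RNA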"}, "Streptococcus": {"test_system": "Streptococcus", "experiment": "GAS UMAA2166 growth inhibition – luminescence, BacTiterGlo, counter-screen for streptokinase expression inhibitor project, dose response (AID 1915)", "type": "functional, organism-based"}, "Streptokinase A": {"target": "T5, Streptokinase A (Streptococcus pyogenes serotype M1, UniProt P10520)", "T5 sequence (P10520 whole entry)": "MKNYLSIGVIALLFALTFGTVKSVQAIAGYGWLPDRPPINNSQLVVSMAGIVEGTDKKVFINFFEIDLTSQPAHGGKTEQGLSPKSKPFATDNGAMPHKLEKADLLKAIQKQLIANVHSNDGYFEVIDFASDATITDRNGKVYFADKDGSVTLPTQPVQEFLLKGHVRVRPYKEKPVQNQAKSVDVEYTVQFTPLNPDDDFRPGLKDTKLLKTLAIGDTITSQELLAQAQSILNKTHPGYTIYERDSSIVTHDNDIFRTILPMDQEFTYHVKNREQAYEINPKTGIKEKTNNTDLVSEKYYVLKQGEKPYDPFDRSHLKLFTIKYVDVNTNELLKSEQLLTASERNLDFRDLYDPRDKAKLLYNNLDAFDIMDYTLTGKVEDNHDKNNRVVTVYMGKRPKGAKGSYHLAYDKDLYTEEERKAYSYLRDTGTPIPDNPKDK", "experiment": "viability-normalized secreted streptokinase activity reduction – plasminogen activation absorbance, OD405, dose response (AID 1914);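 further: secreted streptokinase activity via plasminogen activation per viability signal from cell pellet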", "type": "functional, Streptococcus pyogenes M1 GAS"}, "[5]": {"test_system": "Streptococcus sp. 'group A'", "experiment": "Streptococcus pyogenes SK(-)GAS viability under kanamycin – luminescence, BacTiterGlo, confirmation, counter-screen for streptokinase expression inhibitor project, dose response (AID 1900)", "type": "functional, organism-based"}, "[6]": {"target": "T2, Probable nicotinate-nucleotide adenylyltransferase", "type": "functional, Staphylococcus aureus subsp. aureus N315", "conditions": "read-out: IC50_Mean"}, "H9c2": {"test_system": "H9c2", "experiment": "cells", "type": "functional, cell-based", "conditions": "Rattus norvegicus, H9c2, Myocardium"}, "[7]": {"target": "T6, Tyrosine-protein kinase receptor TYRO3 (Homo sapiens, UniProt Q06418)", "T6 sequence (Q06418 whole entry)": "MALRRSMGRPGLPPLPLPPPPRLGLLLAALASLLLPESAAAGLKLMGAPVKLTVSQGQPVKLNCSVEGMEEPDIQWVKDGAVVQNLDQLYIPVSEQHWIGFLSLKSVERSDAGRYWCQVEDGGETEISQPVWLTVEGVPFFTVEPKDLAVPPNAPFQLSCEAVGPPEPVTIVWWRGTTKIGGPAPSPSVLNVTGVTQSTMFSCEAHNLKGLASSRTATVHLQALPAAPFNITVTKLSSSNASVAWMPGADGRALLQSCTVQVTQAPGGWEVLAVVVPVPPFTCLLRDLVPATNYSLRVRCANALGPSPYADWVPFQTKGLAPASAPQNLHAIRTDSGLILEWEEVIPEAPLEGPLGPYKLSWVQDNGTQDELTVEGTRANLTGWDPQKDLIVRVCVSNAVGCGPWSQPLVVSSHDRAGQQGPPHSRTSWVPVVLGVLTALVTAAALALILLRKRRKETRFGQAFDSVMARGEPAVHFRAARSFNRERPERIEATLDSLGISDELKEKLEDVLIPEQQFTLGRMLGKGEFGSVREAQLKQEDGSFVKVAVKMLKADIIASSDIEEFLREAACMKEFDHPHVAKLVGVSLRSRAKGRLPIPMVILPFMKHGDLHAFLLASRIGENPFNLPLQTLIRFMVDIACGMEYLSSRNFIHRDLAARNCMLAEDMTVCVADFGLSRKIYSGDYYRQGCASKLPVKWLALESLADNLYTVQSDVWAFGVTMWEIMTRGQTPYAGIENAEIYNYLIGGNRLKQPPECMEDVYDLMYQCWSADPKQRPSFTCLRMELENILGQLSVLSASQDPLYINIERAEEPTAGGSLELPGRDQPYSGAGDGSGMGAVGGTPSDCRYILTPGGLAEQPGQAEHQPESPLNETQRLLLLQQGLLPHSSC", "type": "functional"}, "[8]": {"target": "Dual specificity tyrosine-phosphorylation-regulated kinase 1B (Homo sapiens, UniProt Q9Y463)", "sequence (Q9Y463 whole entry)": "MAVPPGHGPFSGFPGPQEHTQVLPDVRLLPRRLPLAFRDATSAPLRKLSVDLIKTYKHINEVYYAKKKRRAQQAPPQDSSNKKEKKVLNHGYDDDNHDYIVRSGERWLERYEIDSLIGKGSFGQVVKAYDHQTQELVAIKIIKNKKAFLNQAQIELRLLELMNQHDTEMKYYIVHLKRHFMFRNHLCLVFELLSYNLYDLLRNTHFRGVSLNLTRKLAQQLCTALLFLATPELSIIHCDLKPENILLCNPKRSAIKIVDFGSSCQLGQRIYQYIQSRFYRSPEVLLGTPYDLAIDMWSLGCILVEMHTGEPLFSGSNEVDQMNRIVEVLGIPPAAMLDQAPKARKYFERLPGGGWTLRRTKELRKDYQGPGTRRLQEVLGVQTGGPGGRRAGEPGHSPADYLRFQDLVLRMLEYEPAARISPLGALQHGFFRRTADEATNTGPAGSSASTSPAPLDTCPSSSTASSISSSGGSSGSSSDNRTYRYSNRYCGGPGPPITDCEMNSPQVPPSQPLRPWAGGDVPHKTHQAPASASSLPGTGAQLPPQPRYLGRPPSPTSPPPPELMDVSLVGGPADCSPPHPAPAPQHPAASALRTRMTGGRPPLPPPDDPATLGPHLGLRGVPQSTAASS", "experiment": "Navigating the Kinome. Panel member name: DYRK1B", "type": "functional"}, "[9]": {"experiment": "general mammalian cell viability loss – inhibitor set, cherry-pick, set 2, cytotoxicity control for miR-122 modulator project, dose response (AID 720697)", "type": "functional, cell-based"}, "[10]": {"experiment": "activation of miR-122 Renilla sensor silencing – cell-based, Huh7 psiCHECK-miR122, Renilla luciferase, cherry-picked, dose response (AID 651956);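 further: huh7 hepatoma cells stably carrying a psiCHECK-2 miR-122 sensor plasmid; renilla luciferase signal reporting endogenous miR-122 activity after 48 h compound exposure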", "type": "functional"}, "Paired box protein Pax-8": {"target": "Paired box protein Pax-8 (Homo sapiens, UniProt Q06710)", "sequence (Q06710 whole entry)": "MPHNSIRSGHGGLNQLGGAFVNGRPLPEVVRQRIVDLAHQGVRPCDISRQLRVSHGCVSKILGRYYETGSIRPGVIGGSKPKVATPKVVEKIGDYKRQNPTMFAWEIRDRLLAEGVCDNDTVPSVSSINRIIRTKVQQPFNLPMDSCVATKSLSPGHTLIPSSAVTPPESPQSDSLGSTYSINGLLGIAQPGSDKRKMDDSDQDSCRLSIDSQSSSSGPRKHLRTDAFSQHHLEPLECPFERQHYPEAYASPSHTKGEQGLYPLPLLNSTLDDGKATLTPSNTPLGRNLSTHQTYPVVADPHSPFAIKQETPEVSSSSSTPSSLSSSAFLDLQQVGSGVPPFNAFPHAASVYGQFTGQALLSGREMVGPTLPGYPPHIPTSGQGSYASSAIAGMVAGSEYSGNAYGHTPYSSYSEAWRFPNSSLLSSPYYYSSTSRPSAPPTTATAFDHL", "experiment": "PAX8 transcriptional activity inhibition in RMG-I – RMG-I cells, luciferase, cherry-pick, dose response (AID 687027);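 further: luciferase reporter driven by Pax8 target thyroperoxidase promoter measured by SteadyGlo luminescence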", "type": "functional, cell-based"}, "[11]": {"experiment": "OVCAR8 cell viability loss – plate reader, dry powder samples, PAX8 project, dose response (AID 743197)", "type": "functional, cell-based", "conditions": "OVCAR-8"}, "[12]": {"experiment": "IGROV1 cell killing – plate reader, dry powder samples, PAX8 inhibitor project, dose response (AID 743043)", "type": "functional, cell-based", "conditions": "IGROV-1"}, "[13]": {"experiment": "OVCAR-3 cell viability loss – plate reader, dry powder samples, PAX8 inhibitor project, dose response (AID 743044)", "type": "functional, cell-based"}, "[14]": {"target": "T7, Small ubiquitin-related modifier 1 (Homo sapiens, UniProt P63165)", "T7 sequence (P63165 whole entry)": "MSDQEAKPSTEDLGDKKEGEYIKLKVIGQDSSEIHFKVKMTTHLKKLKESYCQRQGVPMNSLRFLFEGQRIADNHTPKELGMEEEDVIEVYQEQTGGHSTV", "experiment": "SUMO1 protein-protein binding blockers, potency – biochemical, FRET, dose response (AID 624383)", "type": "functional", "conditions": "read-out: IC50_Mean"}, "[15]": {"target": "T7, Small ubiquitin-related modifier 1", "experiment": "SUMO1 protein interaction blockers, potency – biochemical, fluorescence polarization, uHTS hits, dose response (AID 624382)", "type": "functional", "conditions": "read-out: IC50_Mean"}}, "note": "Calls of active or inactive are those of the source."}
{"compound": "Cc1cccc2sc(NNC(=O)c3cc(=O)c4ccccc4o3)nc12", "values": [{"measurement": "EC50", "setting": "[1]", "result": "> 300 µM (not active)"}, {"measurement": "IC50", "setting": "[2]", "result": "5.9 µM (active)"}, {"measurement": "IC50", "setting": "[3]", "result": "94 µM (active)"}, {"measurement": "EC50", "setting": "[4]", "result": "> 300 µM (not active)"}, {"measurement": "EC50", "setting": "Streptococcus", "result": "7.43 µM (active)"}, {"measurement": "EC50", "setting": "Streptokinase A", "result": "> 150 µM (not active)"}, {"measurement": "EC50", "setting": "[5]", "result": "0.449 µM (active)"}, {"measurement": "IC50", "setting": "[6]", "result": "35.2 µM (active)"}]}
{"compound": "Cc1ccc(Cl)cc1N1CCN(S(=O)(=O)c2ccc3[nH]c(=O)c(=O)[nH]c3c2)CC1", "values": [{"measurement": "IC50", "setting": "[2]", "result": "7.01 µM (active)"}, {"measurement": "IC50", "setting": "[6]", "result": "52.8 µM (active)"}]}
{"compound": "COc1cccc(Nc2nc(-c3sc(NC(=O)c4ccco4)nc3C)cs2)c1", "values": [{"measurement": "IC50", "setting": "[2]", "result": "13.5 µM (active)"}, {"measurement": "IC50", "setting": "H9c2", "result": "> 79 µM (inactive)"}, {"measurement": "IC50", "setting": "[6]", "result": "33.2 µM (active)"}]}
{"compound": "O=c1[nH]c2cnc(Cl)nc2[nH]1", "values": [{"measurement": "Ki", "setting": "[7]", "result": "79.4 µM (active)"}, {"measurement": "Ki", "setting": "[8]", "result": "79.4 µM (active)"}]}
{"compound": "COc1ccc(-c2ccc3c(c2)O[C@H](CN(C)C(=O)Nc2ccccc2F)[C@H](C)CN([C@@H](C)CO)S3(=O)=O)cc1", "values": [{"measurement": "AC50", "setting": "[9]", "result": "0.5 µM (active)"}, {"measurement": "AC50", "setting": "[10]", "result": "9.32 µM (active)"}]}
{"compound": "CNC(=O)C[C@H]1CC[C@@H]2[C@H](COc3ccc(NS(=O)(=O)c4ccc(F)cc4)cc3C(=O)N2C)O1", "values": [{"measurement": "AC50", "setting": "[10]", "result": "47.9 µM (active)"}]}
{"compound": "C[C@@H]1CCCCO[C@@H](CN(C)C(=O)Nc2ccc(C(F)(F)F)cc2)[C@H](C)CN([C@H](C)CO)C(=O)c2cc(NS(=O)(=O)c3cccs3)ccc2O1", "values": [{"measurement": "AC50", "setting": "Paired box protein Pax-8", "result": "8.64 µM (active)"}, {"measurement": "AC50", "setting": "[11]", "result": "39.4 µM (active)"}, {"measurement": "AC50", "setting": "[12]", "result": "45.5 µM (active)"}, {"measurement": "AC50", "setting": "[13]", "result": "20 µM (active)"}]}
{"compound": "O=C(N/N=C/c1cccnc1)c1cccc(NC(=O)c2ccc(Cl)cc2)c1", "values": [{"measurement": "IC50", "setting": "[14]", "result": "5.33 µM (active)"}, {"measurement": "IC50", "setting": "[15]", "result": "> 66.6 µM (inactive)"}]}
